According to patent US9510581B2, “Bed bug lures” (Rutgers, The State University of New Jersey, priority 2011, dated 2016):

What was measured:
Type in all cases: in vivo, Cimex lectularius L.
bed bugs [1] = test: Screening of chemical lures in four-choice pitfall trap bioassays; conditions: for Trap catch versus corresponding unbaited control: four-choice bioassays, P<0.05; for Percent catch of bed bugs in pitfall traps, Mean (%) ± SE: four-choice: three lures and an unbaited control per arena, 50 μl lure, plastic tray arena, 50 bugs, 8 hours
Protocol: Bed bugs were collected from an infested house in Lakewood, N.J. They were maintained in plastic containers (4.7 cm height and 5 cm diameter) with folded paper as harborages at 26° C.±1° C., 40±10% relative humidity, a 12:12 hour (L:D) photoperiod, and were deprived of food for the entire duration of the study. All bioassays were conducted within 3 months after bed bugs were collected.
Pitfall traps were used to evaluate the attractiveness of lures. The pitfall trap was an inverted plastic dog bowl (600 ml volume, 18 cm diameter, 6.4 cm deep and 1 mm thickness) (IKEA, Baltimore, Md., USA) (FIG. 1a). The outer wall of the trap was covered with a layer of paper surgical tape (Caring International, Mundelein, Ill., USA), which was painted black with ColorPlace spray paint (WalMart Stores Inc., Bentonville, USA).
Two types of experimental arenas were used: a) wooden door arenas (200 by 76 cm by 6.4 cm) (length by width by height) with wooden floor, and b) plastic tray arenas (80 by 75 by 5 cm) (length by width by height) with bottom lined with brown paper (FIG. 1b). A layer of fluoropolymer resin (DuPont Polymers, Wilmington, Del., USA) was applied to inner walls of the experimental arenas to prevent the bugs from escaping. A layer of this resin was also applied to inner walls of the pitfall traps in a similar fashion to confine the bed bugs that fell into the traps. A filter paper (15 cm diameter) was placed on the floor in the center of each arena, and then a plastic ring (13.3 cm diameter and 6.4 cm height) was placed on the filter paper for confining the bed bugs. A piece of folded cardboard and folded fabric was placed on the filter paper to provide harborages for bed bugs. Six additional paper harborages measuring 5.1 cm long and 3.3 cm wide were placed along the edges of the floor of each wooden arena. Two wooden door arenas were located at least 6 m away from each other in a 15 m long and 9 m wide room at 23-25° C. Two additional wooden door arenas were located in two 4 m long and 2.3 m wide rooms at 24-25° C. These rooms had normal air current through vents on the ceilings or through the open door. In experiments using plastic tray arenas, four arenas were placed simultaneously in a non-ventilated, closed room measuring 4 m long and 2.3 m wide at 24-25° C. A 12:12 hour (L:D) cycle was maintained in all the rooms that were used for bioassays. […]
Twelve known or potential bed bug chemical lures (Table 1) were evaluated for their attractiveness to bed bugs in plastic tray arenas.

bed bugs [2] = test: Attractiveness of chemical lures in two-choice pitfall trap bioassays; conditions: baited versus unbaited trap, Kruskal-Wallis / Tukey's HSD
Protocol: These chemicals were further evaluated to confirm their attractiveness to bed bugs using two-choice assays. The experimental setup and testing procedure were similar to those described above however only two traps were placed at opposite corners of each arena (FIG. 1b). One trap was used as an unbaited control and the other trap received a chemical lure. Each chemical lure was evaluated 8 times over two consecutive days. The baited and non-baited trap positions in each arena were switched on the second day to eliminate any positional effect that could influence the trap catch. Percent attraction in multiple comparison experiments involving a control was calculated as: Percent attraction=100×(T−C)/Total, where “T” is the number of bed bugs in the baited pitfall trap and “C” is the number of bed bugs in the non-baited pitfall trap. “Total” is the total number of healthy bugs in each experiment arena at time of recording the bed bug locations. The percent catch is the number of bed bugs found in a pitfall trap divided by number of healthy bed bugs in each arena at the time of recording the results. Positive values indicate attraction to the treatment and negative values indicate repellency; and the values range from −100 (complete repellency) to +100 (complete attraction). For the paired design experiments, mean percent catch were analyzed by paired t-test (P=0.05). […]

bed bugs [3] = test: Relative attractiveness of four chemical lures in four-choice bioassays; conditions: for Percent of bed bugs captured in baited pitfall traps: four traps per arena, each baited with one of four chemicals, four replicates
Protocol: Four traps in each arena were baited with one of these chemicals. Four arenas were used to obtain four replicates. Percent attraction in multiple comparison experiments involving a control was calculated as: Percent attraction=100×(T−C)/Total, where “T” is the number of bed bugs in the baited pitfall trap and “C” is the number of bed bugs in the non-baited pitfall trap. “Total” is the total number of healthy bugs in each experiment arena at time of recording the bed bug locations. The percent catch is the number of bed bugs found in a pitfall trap divided by number of healthy bed bugs in each arena at the time of recording the results. Positive values indicate attraction to the treatment and negative values indicate repellency; and the values range from −100 (complete repellency) to +100 (complete attraction). For the paired design experiments, mean percent catch were analyzed by paired t-test (P=0.05). Mean percent attractions among the treatments were compared using the non-parametric Kruskal-Wallis tests followed by Tukey's HSD test. The data for Experiment 2.10.1 and 2.10.2 were pooled for analyzing differences among treatments (treatment×day interaction was insignificant from Analysis of Variance test).

bed bugs [4] = test: Effect of CO2 release rates on bed bug trap efficacy, door arenas; conditions: release rates 200, 300, 400 and 500 ml/min
Protocol: The two traps were placed at opposite ends equidistant (85 cm) from the center. The experiment was tested over 4 consecutive days. On each day, a different CO2 release rate was used in each arena following a Latin square design. The CO2 source was 5 lb cylinders (Airgas East Inc., Piscataway, N.J., USA). The tested release rates were: 200, 300, 400 and 500 ml/min. The rate was determined as ml of water displaced by CO2 per unit of time using a Bubble-O-Meter (Bubble-O-Meter, Dublin, Ohio, USA). The CO2 was introduced into 240 ml plastic cups that were placed on the pitfall traps (FIG. 1c). Two holes were made on the lid of each plastic cup for CO2 to escape. Fifty bed bug nymphs and adult males were released into the center of each arena and confined with a plastic ring. The bugs were acclimated for approximately 15 hours before starting the treatments. At 1 hour after dark cycle, the plastic ring confining the bugs was removed. The numbers of bed bugs trapped in the pitfall traps and those in the arenas were collected and counted after 8 hours. […] The number of dead or moribund bed bugs in each arena was very low (<5%) in all the bioassays. After counting, dead and moribund bugs were replaced with healthy bugs in each arena. All bugs were placed back to the center of the arenas and confined with plastic rings for 15 hours before starting next bioassay.

Compound | Trap catch versus corresponding unbaited control (bed bugs [1]) | Percent catch of bed bugs in pitfall traps, Mean (%) ± SE (bed bugs [1]) | further results
C=CC(O)CCCCC (stereo not drawn) [1-octen-3-ol] | significantly higher number of bugs than their corresponding controls | 28.3 ± 2.5a^a % | Attraction compared among lures (percent attraction) (bed bugs [2]): not significantly different from nonanal; Percent of bed bugs captured in baited pitfall traps (bed bugs [3]): 17.0±1.8%
CCCCCCCCC=O [Nonanal] | significantly higher number of bugs than their corresponding controls | 27.7 ± 3.2a % | Attraction compared among lures (percent attraction) (bed bugs [2]): significantly more attractive than L-lactic acid, and L-carvone; Percent of bed bugs captured in baited pitfall traps (bed bugs [3]): 34.0±4.6%; Attractiveness relative to spearmint oil, 1-octen-3-ol or coriander Egyptian oil (bed bugs [3]; four-choice comparison, P=0.01): approximately 2 fold
O=C=O [CO2, carbon dioxide] |  |  | Attraction of bed bugs to traps baited with CO2 (bed bugs [4]): very attractive to bed bugs regardless of the CO2 release rates
CC(O)c1ccccc1 (stereo not drawn) [Styralol] |  | 16.4 ± 2.4bc % | 
L-carvone | significantly higher number of bugs than their corresponding controls | 27.5 ± 3.5a % | 
CC(=O)CCC=C(C)C [6-Methyl-5-Hepten-2-one] |  | 20.9 ± 2.52ab % | 
OCc1ccccc1 [Benzyl alcohol] |  | 25.1 ± 3.4ab % | 
C[C@H](O)C(=O)O [L-lactic acid] | significantly higher number of bugs than their corresponding controls | 25.7 ± 2.7a % | 
CC(=O)CC/C=C(/C)CCC=C(C)C [Z-Geranyl Acetone] |  | 13.0 ± 2.4a % | 
